According to patent US8541572B2:

What follows are compounds tested on TNF-α production in LPS-stimulated human whole blood (assay: Inhibition of TNF-α production from human whole blood (hWBA)). Details: Homo sapiens, IC50 for TNF-α production, LPS-stimulated human whole blood; read-out: hWBA.
Assay type: cell-based

| IC50 | Compound |
| --- | --- |
| 151 nM | COc1ccc2c(c1)C(=O)N(C[C@@]1(C#Cc3ccc(C(=NO)N4CCN(C5CCCCCC5)CC4)cc3)NC(=O)NC1=O)C2 [Compound 927] |
| 154 nM | COc1ccc2c(c1)C(=O)N(C[C@@]1(C#Cc3ccc(C(=NO)N4CCCCC4)cc3)NC(=O)NC1=O)C2 [Compound 946] |

Same assay, conditions: Homo sapiens, IC50 for inhibition of TNF-α production, LPS-stimulated human whole blood; read-out: hWBA

| IC50 | Compound |
| --- | --- |
| 9460 nM | COc1ccc2c(c1)C(=O)N(C[C@@]1(C#Cc3ccc(-c4ccc(F)cc4O)nc3)NC(=O)NC1=O)C2 [Compound 1316] |
| 1170 nM | COc1ccc(N2CCC2=O)nc1C#C[C@]1(CN2Cc3ccc(OC)c(F)c3C2=O)NC(=O)NC1=O [Compound 1508] |

Same assay, conditions: IC50 for TNF-α production, LPS-stimulated human whole blood; read-out: hWBA

| Compound | IC50 |
| --- | --- |
| COc1ccc2c(c1)C(=O)N(C[C@@]1(C#Cc3ccc(/C=N\Nc4ccccc4)cc3)NC(=O)NC1=O)C2 [Compound 935] | 1220 nM |
| COc1ccc2c(c1)C(=O)N(C[C@]1(C#Cc3ccc(C(=O)O)s3)NC(=O)NC1=O)C2 [Compound 905] | 10000 nM |
| COc1ccc2c(c1)C(=O)N(C[C@@]1(C#Cc3cccnc3)NC(=O)NC1=O)CC2 [Compound 2318] | 10000 nM |
| COc1ccc2c(c1)C(=O)N(C[C@@]1(C#Cc3ccc(NCCN(C)C)nc3)NC(=O)NC1=O)C2 [Compound 2289] | 419 nM |

Second part, the compound after the results:

| IC50 | Compound |
| --- | --- |
| 571 nM | COc1ccc2c(c1)C(=O)N(C[C@@]1(C#Cc3ccc(C(=NO)N4CCOCC4)s3)NC(=O)NC1=O)C2 [Compound 952] |
| 45 nM | COc1ccc2c(c1)C(=O)N(C[C@@]1(C#Cc3ccc(C(=NO)N4CCCN(C)CC4)cc3)NC(=O)NC1=O)C2 [Compound 913] |

Same assay, conditions: IC50 for inhibition of TNF-α production, LPS-stimulated human whole blood; read-out: hWBA

| Compound | IC50 |
| --- | --- |
| COc1ccc2c(c1)C(=O)N(C[C@@]1(C#Cc3nc(-c4cccc(O)c4)ccc3OC)NC(=O)NC1=O)C2 [Compound 1922] | 9910 nM |
| COc1ccc2c(c1)C(=O)N(C[C@@]1(C#Cc3ccc(C(=O)N4CCN(C5CCCCC5)CC4)cc3)NC(=O)NC1=O)C2 [Compound 962] | 578 nM |
| COc1ccc2c(c1)C(=O)N(C[C@@]1(C#Cc3ccc(-c4nnc[nH]4)cc3OC)NC(=O)NC1=O)C2 [Compound 2223] | 131 nM |
| CCN1CCN(C(=O)C2CC(=O)N(c3ccc(C#C[C@]4(CN5Cc6ccc(OC)cc6C5=O)NC(=O)NC4=O)cc3)C2)CC1 (some centres unmarked) [Compound 1319] | 940 nM |
| COc1ccc2c(c1)C(=O)N(C[C@@]1(C#Cc3cnc(N4CCC(=O)CC4)nc3N)NC(=O)NC1=O)C2 [Compound 2210] | 1010 nM |
| COc1ccc2c(c1)C(=O)N(C[C@@]1(C#Cc3nc(-c4ccc(S(=O)(=O)NC5CC5)cc4)ccc3OC)NC(=O)NC1=O)C2 [Compound 1512] | 7040 nM |
| COc1ccc2c(c1)C(=O)N(C[C@@]1(C#Cc3ccc(-c4nc(-c5cccnc5)ccc4OC(C)=O)cc3)NC(=O)NC1=O)C2 [Compound 975] | 61.6 nM |

Second part, the compound after the results:

| IC50 | Compound |
| --- | --- |
| 42 nM | COc1ccc2c(c1F)C(=O)N(C[C@@]1(C#Cc3ccc(/C(=N/O)N4CCNC[C@@H]4C)c(F)c3)NC(=O)NC1=O)C2 [Compound 1309] |
| 148 nM | COc1ccc2c(c1F)C(=O)N(C[C@@]1(C#Cc3ccc(N4C(=O)NC5(CC5)C4=O)c(F)c3)NC(=O)NC1=O)C2 [Compound 1317] |
| 723 nM | COc1ccc2c(c1)C(=O)N(C[C@@]1(C#Cc3cc(F)c4c(O)n[nH]c4c3)NC(=O)NC1=O)C2 [Compound 302] |
| 367 nM | COc1ccc2c(c1F)C(=O)N(C[C@@]1(C#Cc3ccc4c(c3)C3(CC4)NC(=O)NC3=O)NC(=O)NC1=O)C2 (some centres unmarked) [Compound 1304] |
| 9540 nM | COc1ccc2c(c1)C(=O)N(C[C@@]1(C#Cc3nc(N4C(=O)CCC4C)ccc3OC)NC(=O)NC1=O)C2 (some centres unmarked) [Compound 1506] |
| 86 nM | COc1ccc2c(c1F)C(=O)N(C[C@@]1(C#Cc3cncc(NC(=O)C4CCN(C)CC4)c3)NC(=O)NC1=O)C2 [Compound 1907] |
| 118 nM | COc1ccc2c(c1F)C(=O)N(C[C@@]1(C#Cc3ccc(N4CCNCC4)cc3)NC(=O)NC1=O)C2 [Compound 1706] |
| 227 nM | COc1ccc2c(c1)C(=O)N(C[C@@]1(C#Cc3ccc(C4=NCCN4)cc3)NC(=O)NC1=O)C2 [Compound 2222] |
| 69 nM | CCN1CCN(/C(=N\O)c2ccc(C#C[C@]3(CN4Cc5ccc(OC)c(F)c5C4=O)NC(=O)NC3=O)cc2F)[C@@H](C)C1 [Compound 1311] |
